Measured values taken from patent US20030181362A1, “Receptor” (priority 2000, published 2003).

Experiments:
Classical Pathway = experiment: Inhibition of Classical pathway-mediated lysis of antibody-sensitized sheep erythrocytes in normal human serum; assay type: biochemical
Protocol: To determine whether the interaction of C2 with ShTORE-ed-1 could affect the normal interaction of C2 with other complement proteins and thereby inhibit complement activation, the effect of the TORE-ed-1 peptide on complement activation was assessed. The ability of the TORE-ed-1 peptide to inhibit the lysis of antibody-sensitized sheep erythrocytes, in the presence of normal human serum, NHS (and therefore in the presence of complement proteins C1 through to […]), in a dose-dependent manner, was used as a measure of its ability to inhibit the Classical Pathway. The extent of haemolysis was determined by spectrophotometric measurement of haemoglobin release at 412 nm. An IC60 value of approximately 10 μM was found (FIG. 11A and B).
(§1) FIG. 11(A) and (B) Effect of increasing TORE-ed1 peptide on the complement-mediated lysis of sensitized sheep red blood cells in the presence of normal human serum as a source of complement. FIG. 11(C) and (D) Effect of increasing TORE-ed1 peptide preincubated with C2 on haemolysis in the presence of human serum in which C2 is limiting. FIG. 11(E) effect of various Tore peptides and Tore related C4b-derived peptides on complement mediated lysis.

[1] = Immune complex inflammation in mouse ear (human albumin i.v., anti-HA s.c.); assay type: in vivo, Mice
Protocol: FIG. 22: Mice (7 or 8 per group) injected with human albumin (HA) 10 mg/kg i.v. (200 μl of a solution 1 mg/ml in Evans blue1%). After 5 min anti-HA injected s.c. in situ (in ear). Test compounds then injected and after 4 h evaluations made for reduction of inflammation. Oedema was evaluated by weight. Plasma extravasation as measure of microvascular permeability or haemorrage was measured by extraction of extravasated Evan's blue dye with formamide from injected ears. As well as subcutaneous (s.c.) administration of H17 (the test compound of formula HEVKIKHFSPY at two concentrations), it was also given intravenously (0.1 mg/kg). The positive control for reduction in inflammation in this experiment was cromolyn.

human complement C2 [2] = molecular target: T1, human complement C2 (Homo sapiens, UniProt P06681); experiment: Haemolysis with C2-deficient human serum reconstituted with C2, peptide preincubated with C2; assay type: biochemical; conditions: peptide preincubated with C2 before addition to C2-depleted serum
T1 sequence (P06681 21-752): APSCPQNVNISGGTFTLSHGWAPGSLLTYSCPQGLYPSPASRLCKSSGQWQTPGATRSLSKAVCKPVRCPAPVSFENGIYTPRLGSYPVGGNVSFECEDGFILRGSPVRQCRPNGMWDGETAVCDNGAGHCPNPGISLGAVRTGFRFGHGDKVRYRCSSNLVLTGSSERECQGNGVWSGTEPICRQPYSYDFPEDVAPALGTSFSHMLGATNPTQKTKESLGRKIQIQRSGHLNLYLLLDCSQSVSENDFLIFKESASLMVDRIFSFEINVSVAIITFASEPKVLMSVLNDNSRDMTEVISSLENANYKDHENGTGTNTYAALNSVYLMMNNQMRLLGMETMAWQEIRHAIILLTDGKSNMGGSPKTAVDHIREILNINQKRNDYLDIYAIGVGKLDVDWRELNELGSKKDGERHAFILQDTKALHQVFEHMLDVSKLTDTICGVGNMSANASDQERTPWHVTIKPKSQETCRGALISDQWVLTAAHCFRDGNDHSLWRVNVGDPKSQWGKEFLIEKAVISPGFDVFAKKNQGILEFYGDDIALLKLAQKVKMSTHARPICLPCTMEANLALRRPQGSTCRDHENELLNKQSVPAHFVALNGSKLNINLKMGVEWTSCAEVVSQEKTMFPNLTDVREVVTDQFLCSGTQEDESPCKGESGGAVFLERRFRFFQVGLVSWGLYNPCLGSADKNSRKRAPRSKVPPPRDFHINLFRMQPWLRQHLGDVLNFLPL
Protocol: As an additional confirmation that TORE-ed-1 specifically binds to human complement C2, C2-deficient human serum with enough C2 added to reconstitute haemolytic activity, was used in the same assay.
as §1

human complement C2 [3] = molecular target: T1, human complement C2; experiment: Receptor affinity chromatography with immobilised ed-1 peptide; assay type: binding; parameters: One litre of serum-free medium which had maintained the cells; endogenous in cells; host or cells: THP-1 (human macrophage-like cells), conditioned serum-free medium
Description: In order to identify a likely ligand, the putative ligand-binding domain of ShTORE, extracellular domain 1 (ed-1), was used in receptor affinity chromatography. It was assumed that the cells expressing the receptor themselves produced the ligand in an “autocrine” manner. The cells chosen were the macrophage-like (human) THP-1 cells. These were adapted to grow in conditioned, serum-free medium in order to increase the chances of finding the ligand for TORE. One litre of serum-free medium which had maintained the cells, and as a control one litre of serum-free medium without cells, was passed through identical epoxy-activated Sepharose 6B columns with the 27-mer ShTORE-ed-1 peptide attached. Fractions were collected from a low pH elution and 20 μl aliquots run on SDS-PAGE. An 83 kDa protein band was identified (FIG. 10A, lane 1). The fraction was concentrated, transferred to problot and stained with Coomassie Brilliant blue. The band was then excised and the N-terminal sequence determined. The resulting six residues indicated the protein to be human complement protein C2. The fully glycosylated version of C2, however should have been 102 kDa.

## FEVKITPGKPY [C4b β chain derived peptide]
Classical Pathway
  complement inhibition in vitro: shown to inhibit complement in vitro

## HEVKIKSPY [TOR-ed1 peptide; probably a misprint of …]
[1]; in vivo
  inflammation mediated by immune complexes and Classical pathway complement (Type III hypersensitivity): reduce inflammation

## SSTSDIRLVIHTKTGPIYIKST (shistosoma haematobium) [SEQ ID NO 2]
Classical Pathway
  complement inhibition in vitro: inhibit complement action in vitro

## HEVKIKHFSPY (shistosoma haematobium) [H17]
Classical Pathway
  complement inhibition in vitro: capable of effective complement inhibition in vitro
[1]; 1 μg dose, 4 h
  reduction of haemorrage (Evans blue extravasation): 30%
  reduction of oedema (by weight): 28%

## NH2-Met-Ser-Pro-Ser-Leu-Val-Ser-Asp-Thr-Gln-Lys-His-Glu-Arg-Gly-Ser-His-Glu-Val-Lys-Ile-Lys-His-Phe-Ser-Pro-Tyr-CO2H (H-MSPSLVSDTQKHERGSHEVKIKHFSPY-OH) [TORE-ed-1 peptide, 27-mer peptide of extracellular domain 1 of ShTORE]
Human complement C2 [2]
  inhibition of haemolytic activity: inhibit haemolytic activity
Classical Pathway
  complement inhibition in vitro: inhibit complement action in vitro
Classical Pathway; normal human serum
  concentration able to inhibit the haemolytic activity of C2 from the Classical pathway: 10 µM
Classical Pathway; normal human serum, haemoglobin release at 412 nm
  IC60, inhibition of lysis of antibody-sensitized sheep erythrocytes: approximately 10 μM
Human complement C2 [3]
  interaction with C2: interact with human complement protein C2
